Source: ChEMBL document CHEMBL5331122, “Structure-Activity Relationship Study of Antimicrobial Peptide PE2 Delivered Novel Linear Derivatives with Potential of Eradicating Biofilms and Low Incidence of Drug Resistance” (J Med Chem, 2023)
Calls of active or inactive are those of the source. Where a SMILES comes first, the peptide text is derived from it. Bridges are numbered along the chain shown (N, C = ends). [ ]: non-standard residue; d: D form. The star is where a group is joined. Heptanoyl(6-Me) = CC(C)CCCCC(=O)*; dDab = NCC[C@@H](N)C(=O)O; Dab = NCC[C@H](N)C(=O)O

How the values were obtained:
[1] = Acute toxicity in Kunming mouse assessed as survival rate at 20 mg/kg, ip measured for 7 days; assay type: organism-based; conditions: in vivo, 168 h, time 7 day
[2] = Acute toxicity in ip dosed Kunming mouse assessed as lethal dose measured upto 7 days; assay type: organism-based; conditions: Kunming, in vivo, time < 7 day
[3] = test system: Erythrocyte; test: Hemolytic activity in mouse red blood cell assessed as hemolysis incubated for 1 hr; assay type: toxicity, cell-based; conditions: dose 4-256 µg/ml
[4] = Acute toxicity in Kunming mouse assessed as survival rate at 20 to 31.7 mg/kg, ip measured at 2 hrs; assay type: organism-based; conditions: in vivo, dose 20-31.7 mg/kg
[5] = Acute toxicity in Kunming mouse assessed as survival rate at 31.7 mg/kg, ip measured after 2 hrs; assay type: organism-based; conditions: in vivo
[6] = test system: Escherichia coli; test: Bactericidal activity against Escherichia coli ATCC 25922 assessed as inhibition of bacterial growth at 0.5 to 2 times MIC by time-kill assay; assay type: functional, organism-based; conditions: time <= 360.0 min, TDE = time-dependent effect
[7] = test system: Escherichia coli; test: Synergistic antibacterial activity against gentamycin-resistant Escherichia coli ATCC 25922 incubated for 18 hrs by checkerboard assay; assay type: functional, organism-based
[8] = test system: Staphylococcus aureus; test: Inhibition of biofilm formation in Staphylococcus aureus ATCC 25923 assessed as inhibition of biofilm formation at 1 times MIC incubated for 24 hrs by crystal violet staining based analysis; assay type: functional, organism-based
[9] = test system: Staphylococcus aureus; test: Antibiofilm activity against Staphylococcus aureus ATCC 25923 assessed as biofilm eradication at 8 times MIC incubated for 24 hrs; assay type: functional, organism-based
[10] = test system: Cell membrane; test: Induction of cell membrane damage in Staphylococcus aureus ATCC 25923 at 2 times MIC measured at 30 mins by propidium iodide staining based flow cytometer assay; assay type: subcellular
[11] = test system: Staphylococcus aureus; test: Induction of membrane morphological changes in Staphylococcus aureus ATCC 25923 assessed as appearance of adherent bacterial cells at 4 times MIC measured at 0.5 to 2 hrs by SEM analysis; assay type: functional, organism-based; conditions: time 0.5-2 hrs
[12] = test system: Cell membrane; test: Induction of cell membrane damage in Escherichia coli ATCC 25922 at 2 times MIC after 0.5 to 2 hrs by propidium iodide staining based flow cytometer assay; assay type: subcellular; conditions: time 0.5-2 hrs
[13] = test system: Staphylococcus aureus; test: Synergistic antibacterial activity against Staphylococcus aureus ATCC 25923 incubated for 18 hrs in presence of rifampicin by checkerboard assay; assay type: functional, organism-based
[14] = test system: Staphylococcus aureus; test: Bactericidal activity against Staphylococcus aureus ATCC 25923 assessed as inhibition of bacterial growth at 1 times MIC measured upto 360 mins by time-kill assay; assay type: functional, organism-based
[15] = test system: Escherichia coli; test: Induction of membrane morphological changes in Escherichia coli ATCC 25922 at 4 times MIC measured at 0.5 to 2 hrs by SEM analysis; assay type: functional, organism-based; conditions: time 0.5-2 hrs
[16] = test system: Escherichia coli; test: Antibacterial activity against Escherichia coli ATCC 25922 in presence of 10% mouse serum measured for 6 hrs; assay type: functional, organism-based
[17] = test system: Cell membrane; test: Induction of cell membrane damage in Staphylococcus aureus ATCC 25923 at 2 times MIC after 0.5 to 2 hrs by propidium iodide staining based flow cytometer assay; assay type: subcellular; conditions: time 0.5-2 hrs
[18] = test system: Staphylococcus aureus; test: Bactericidal activity against Staphylococcus aureus ATCC 25923 assessed as inhibition of bacterial growth at 1/2 times MIC measured upto 360 mins by time-kill assay; assay type: functional, organism-based
[19] = test system: Staphylococcus aureus; test: Additive antibacterial activity against Staphylococcus aureus ATCC 25923 assessed as bacterial growth inhibition incubated for 18 hrs in presence of rifampicin by checkerboard assay; assay type: functional, organism-based
[20] = test system: Staphylococcus aureus; test: Bactericidal activity against Staphylococcus aureus ATCC 25923 assessed as inhibition of bacterial growth at 2 times MIC measured upto 360 mins by time-kill assay; assay type: functional, organism-based
[21] = test system: Staphylococcus aureus; test: Induction of drug resistance against Staphylococcus aureus ATCC 25923 measured upto 15 passages by sequential passaging method; assay type: functional
[22] = test system: Klebsiella pneumoniae; test: Antibacterial activity against Klebsiella pneumoniae ATCC 700603 infected in BALB/c mouse pneumonia model at 5 to 10 mg/kg, ip measured at 4 to 12 hrs; assay type: functional, organism-based; conditions: dose 5-10 mg/kg, time 4-12 hrs
[23] = test system: Staphylococcus aureus; test: Induction of membrane morphological changes in Staphylococcus aureus ATCC 25923 assessed as appearance of broken bacterial cells at 4 times MIC measured at 0.5 to 2 hrs by SEM analysis; assay type: functional, organism-based; conditions: time 0.5-2 hrs
[24] = test system: Escherichia coli; test: Inhibition of biofilm formation in Escherichia coli ATCC 25922 assessed as inhibition of biofilm formation at 1/2 times MIC incubated for 24 hrs by crystal violet staining based analysis; assay type: functional, organism-based
[25] = test system: Cell membrane; test: Induction of inner membrane permeabilization in Escherichia coli ML-35 ATCC 43837 assessed as increase in fluorescence intensity at 1 to 4 times MIC incubated upto 150 mins by ONPG staining based analysis; assay type: subcellular
[26] = test system: Staphylococcus aureus; test: Synergistic antibacterial activity against Staphylococcus aureus ATCC 25923 incubated for 18 hrs in presence of gentamycin by checkerboard assay; assay type: functional, organism-based
[27] = test system: Cell membrane; test: Induction of outer membrane permeabilization in Escherichia coli ATCC 25922 assessed as increase in fluorescence intensity at 4 times MIC measured for 12 hrs by NPN uptake assay; assay type: subcellular
[28] = test system: Escherichia coli; test: Inhibition of biofilm formation in Escherichia coli ATCC 25922 assessed as inhibition of biofilm formation at 1 to 2 times MIC incubated for 24 hrs by crystal violet staining based analysis; assay type: functional, organism-based
[29] = test system: Klebsiella pneumoniae; test: Antibacterial activity against Klebsiella pneumoniae ATCC 700603 infected in BALB/c mouse pneumonia model assessed as reduction in lung bacterial load at 5 to 10 mg/kg, ip measured at 4 to 12 hrs; assay type: functional, organism-based; conditions: dose 5-10 mg/kg, time 4-12 hrs
[30] = test system: Staphylococcus aureus; test: Bactericidal activity against Staphylococcus aureus ATCC 25923 assessed as inhibition of bacterial growth incubated upto 360 mins by time-kill assay; assay type: functional, organism-based
[31] = test system: Escherichia coli; test: Bactericidal activity against Escherichia coli ATCC 25922 assessed as inhibition of bacterial growth at 1 times MIC measured at 120 mins by time-kill assay; assay type: functional, organism-based
[32] = test system: Escherichia coli; test: Bactericidal activity against Escherichia coli ATCC 25922 assessed as inhibition of bacterial growth at 0.5 to 2 times MIC measured at 90 mins by time-kill assay; assay type: functional, organism-based
[33] = test system: Staphylococcus aureus; test: Induction of membrane morphological changes in Staphylococcus aureus ATCC 25923 assessed as appearance of blistered bacterial cells at 4 times MIC measured at 0.5 to 2 hrs by SEM analysis; assay type: functional, organism-based; conditions: time 0.5-2 hrs
[34] = test system: Staphylococcus aureus; test: Inhibition of biofilm formation in Staphylococcus aureus ATCC 25923 assessed as inhibition of biofilm formation at 1/2 times MIC incubated for 24 hrs by crystal violet staining based analysis; assay type: functional, organism-based
[35] = test system: Staphylococcus aureus; test: Induction of membrane morphological changes in Staphylococcus aureus ATCC 25923 at 4 times MIC measured at 0.5 to 2 hrs by SEM analysis; assay type: functional, organism-based; conditions: time 0.5-2 hrs
[36] = test system: Staphylococcus aureus; test: Additive antibacterial activity against Staphylococcus aureus ATCC 25923 assessed as bacterial growth inhibition incubated for 18 hrs in presence of gentamycin by checkerboard assay; assay type: functional, organism-based
[37] = test system: Escherichia coli; test: Bactericidal activity against Escherichia coli ATCC 25922 assessed as inhibition of bacterial growth incubated upto 360 mins by time-kill assay; assay type: functional, organism-based
[38] = test system: Escherichia coli; test: Additive antibacterial activity against Escherichia coli ATCC 25922 assessed as bacterial growth inhibition incubated for 18 hrs in presence of gentamycin by checkerboard assay; assay type: functional, organism-based
[39] = test system: Staphylococcus aureus; test: Antibacterial activity against Staphylococcus aureus ATCC 25923 in presence of 10% mouse serum measured for 6 hrs; assay type: functional, organism-based
[40] = test system: Cell membrane; test: Induction of outer membrane permeabilization in Escherichia coli ATCC 25922 assessed as increase in fluorescence intensity at 1 to 4 times MIC measured for 12 hrs by NPN uptake assay; assay type: subcellular
[41] = test system: Escherichia coli; test: Inhibition of biofilm formation in Escherichia coli ATCC 25922 assessed as inhibition of biofilm formation at 1/4 times MIC incubated for 24 hrs by crystal violet staining based analysis; assay type: functional, organism-based
[42] = test system: Escherichia coli; test: Bactericidal activity against Escherichia coli ATCC 25922 assessed as inhibition of bacterial growth at 2 times MIC measured upto 360 mins by time-kill assay; assay type: functional, organism-based
[43] = test system: Escherichia coli; test: Antimicrobial activity against Escherichia coli ATCC 25922 assessed as reduction in microbial growth measured for 18 hrs in presence of 512 microg/ml LPS; assay type: functional, organism-based
[44] = test system: Escherichia coli; test: Additive antibacterial activity against Escherichia coli ATCC 25922 assessed as bacterial growth inhibition incubated for 18 hrs in presence of rifampicin by checkerboard assay; assay type: functional, organism-based
[45] = test system: Escherichia coli; test: Bactericidal activity against Escherichia coli ATCC 25922 assessed as inhibition of bacterial growth at 1/2 times MIC measured at 180 mins by time-kill assay; assay type: functional, organism-based
[46] = test system: Staphylococcus aureus; test: Antibiofilm activity against Staphylococcus aureus ATCC 25923 assessed as biofilm eradication at 1 times MIC incubated for 24 hrs; assay type: functional, organism-based
[47] = test system: Escherichia coli; test: Synergistic antibacterial activity against rifampicin-resistant Escherichia coli ATCC 25922 incubated for 18 hrs by checkerboard assay; assay type: functional, organism-based
[48] = test system: Staphylococcus aureus; test: Antibiofilm activity against Staphylococcus aureus ATCC 25923 assessed as biofilm eradication at 4 times MIC incubated for 24 hrs; assay type: functional, organism-based
[49] = test system: Staphylococcus aureus; test: Bactericidal activity against Staphylococcus aureus ATCC 25923 assessed as inhibition of bacterial growth at 0.5 to 2 times MIC by time-kill assay; assay type: functional, organism-based; conditions: time <= 360.0 min, TDE = time-dependent effect
[50] = test system: Escherichia coli; test: Antimicrobial activity against Escherichia coli ATCC 25922 assessed as reduction in microbial growth measured for 18 hrs in presence of […] microg/ml LPS; assay type: functional, organism-based
[51] = test system: Escherichia coli; test: Inhibition of biofilm formation in Escherichia coli ATCC 25922 assessed as inhibition of biofilm formation incubated for 24 hrs by crystal violet staining based analysis; assay type: functional, organism-based
[52] = test system: Staphylococcus aureus; test: Bactericidal activity against Staphylococcus aureus ATCC 25923 assessed as inhibition of bacterial growth at 2 times MIC measured at 120 mins by time-kill assay; assay type: functional, organism-based
[53] = test system: Staphylococcus aureus; test: Inhibition of biofilm formation in Staphylococcus aureus ATCC 25923 assessed as inhibition of biofilm formation at 1/4 times MIC incubated for 24 hrs by crystal violet staining based analysis; assay type: functional, organism-based
[54] = test system: Cell membrane; test: Induction of outer membrane permeabilization in Escherichia coli ATCC 25922 assessed as increase in fluorescence intensity at 2 times MIC measured for 12 hrs by NPN uptake assay; assay type: subcellular

CC(C)CCCCC(=O)N[C@@H](CCN)C(=O)N[C@H](C(=O)N[C@@H](CCN)C(=O)N[C@H]1CCNC(=O)[C@H]([C@@H](C)O)NC(=O)[C@H](CCN)NC(=O)[C@H](CCN)NC(=O)[C@H](CC(C)C)NC(=O)[C@@H](Cc2ccccc2)NC(=O)[C@H](CCN)NC1=O)[C@@H](C)O ({Heptanoyl(6-Me)}-[Dab]T[Dab][Dab][Dab][dF]L[Dab][Dab]T; lactam 4-C)
512 µg/mL: HC10 [3]
26.7 mg/kg: LD50 at 168 h [2]
Toxic: Activity [4] | Activity [5]
Non-Toxic: Activity [1]

CC(C)CCCCC(=O)N[C@@H](CCN)C(=O)N[C@H](C(=O)N[C@@H](CCN)C(=O)N[C@H]1CCNC(=O)[C@H]([C@@H](C)O)NC(=O)[C@H](CCN)NC(=O)[C@H](CCN)NC(=O)[C@H](CC(C)C)NC(=O)[C@@H](Cc2ccccc2)NC(=O)[C@@H](CCN)NC1=O)[C@@H](C)O ({Heptanoyl(6-Me)}-[Dab]T[Dab][Dab][dDab][dF]L[Dab][Dab]T; lactam 4-C)
active: Activity [6] Tde | Activity [7] | Activity [9] | Activity [11] | Activity [12] | Activity [13] | Activity [15] | Activity [16] | Activity [17] | Activity [19] | Activity [20] | Activity [21] | Activity [22] | Activity [23] | Activity [25] | Activity [26] | Activity [27] | inhibition [28] | Activity [29] | Activity [30] Dose-Dependent Effect | Activity [31] | Activity [32] | Activity [33] | inhibition [34] | Activity [35] | Activity [36] | Activity [37] Dose-Dependent Effect | Activity [38] | Activity [39] | Activity [40] | inhibition [41] | Activity [42] | Activity [44] | Activity [45] | Activity [47] | Activity [48] | Activity [49] Tde | Activity [50] | inhibition [51] Dose-Dependent Effect | Activity [52] | inhibition [53] | Activity [54]
inactive: inhibition [8] | Activity [10] | Activity [14] | Activity [18] | inhibition [24] | Activity [43] | Activity [46]
